Measurements taken from PubChem BioAssay (NCI).
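Protocol summary: plate cells (96-well), add compound at 5 concentrations, incubate 48 h, interpolate endpoints linearly. TGI: concentration producing complete growth inhibition.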

Columns and labels:
Test in all cases: NCI-60 cell line screen, 48 h
IGROV1 ovarian = test system: IGROV1 ovarian
KM20L2 colon = test system: KM20L2 colon
SNB-78 CNS = test system: SNB-78 CNS
LOX IMVI melanoma = test system: LOX IMVI melanoma
NCI-H226 lung = test system: NCI-H226 lung
SR leukemia = test system: SR leukemia
SK-MEL-5 melanoma = test system: SK-MEL-5 melanoma
RXF 393 renal = test system: RXF 393 renal
RPMI-8226 leukemia = test system: RPMI-8226 leukemia
HOP-18 NSCLC = test system: HOP-18 NSCLC
CCRF-CEM leukemia = test system: CCRF-CEM leukemia
MOLT-4 leukemia = test system: MOLT-4 leukemia
EKVX NSCLC = test system: EKVX NSCLC
UACC-62 melanoma = test system: UACC-62 melanoma
ACHN renal = test system: ACHN renal
M14 melanoma = test system: M14 melanoma
NCI-H23 lung = test system: NCI-H23 lung
SF-539 CNS = test system: SF-539 CNS
M19-MEL melanoma = test system: M19-MEL melanoma
786-0 renal = test system: 786-0 renal
HL-60(TB) leukemia = test system: HL-60(TB) leukemia
OVCAR-5 ovarian = test system: OVCAR-5 ovarian
HOP-92 NSCLC = test system: HOP-92 NSCLC
A498 renal = test system: A498 renal
UO-31 renal = test system: UO-31 renal
COLO 205 colon = test system: COLO 205 colon
A549 NSCLC = test system: A549 NSCLC
MALME-3M melanoma = test system: MALME-3M melanoma
KM12 colon = test system: KM12 colon
HCT-116 colon = test system: HCT-116 colon
DMS 273 small cell lung = test system: DMS 273 small cell lung
LXFL 529 NSCLC = test system: LXFL 529 NSCLC
SF-295 CNS = test system: SF-295 CNS
OVCAR-8 ovarian = test system: OVCAR-8 ovarian
NCI-H460 lung = test system: NCI-H460 lung
OVCAR-3 ovarian = test system: OVCAR-3 ovarian
OVCAR-4 ovarian = test system: OVCAR-4 ovarian
K-562 leukemia = test system: K-562 leukemia
HCT-15 colon = test system: HCT-15 colon
DMS 114 small cell lung = test system: DMS 114 small cell lung
CAKI-1 renal = test system: CAKI-1 renal
SF-268 CNS = test system: SF-268 CNS
SNB-75 CNS = test system: SNB-75 CNS
HT29 colon = test system: HT29 colon
SK-MEL-28 melanoma = test system: SK-MEL-28 melanoma
DLD-1 colon = test system: DLD-1 colon
TK-10 renal = test system: TK-10 renal
UACC-257 melanoma = test system: UACC-257 melanoma
SNB-19 CNS = test system: SNB-19 CNS
SN12C renal = test system: SN12C renal
HCC-2998 colon = test system: HCC-2998 colon
HOP-62 NSCLC = test system: HOP-62 NSCLC

COc1cc2c(cc1O)[C@@]1(Cc3ccc(OC)c(OC)c3)CCC(=O)N1CC2
TGI (IGROV1 ovarian): > 100 µM
TGI (KM20L2 colon): > 100 µM
TGI (SNB-78 CNS): > 100 µM
TGI (LOX IMVI melanoma): > 100 µM
TGI (NCI-H226 lung): > 100 µM
TGI (SR leukemia): > 100 µM
TGI (SK-MEL-5 melanoma): > 100 µM
TGI (RXF 393 renal): > 100 µM
TGI (RPMI-8226 leukemia): > 100 µM
TGI (HOP-18 NSCLC): > 100 µM
TGI (CCRF-CEM leukemia): > 100 µM
TGI (MOLT-4 leukemia): > 100 µM
TGI (EKVX NSCLC): > 100 µM
TGI (UACC-62 melanoma): > 100 µM
TGI (ACHN renal): > 100 µM
TGI (M14 melanoma): > 100 µM
TGI (NCI-H23 lung): > 100 µM
TGI (SF-539 CNS): > 100 µM
TGI (M19-MEL melanoma): > 100 µM
TGI (786-0 renal): > 100 µM
TGI (HL-60(TB) leukemia): > 100 µM
TGI (OVCAR-5 ovarian): > 100 µM
TGI (HOP-92 NSCLC): 92.4 µM
TGI (A498 renal): > 100 µM
TGI (UO-31 renal): > 100 µM
TGI (COLO 205 colon): > 100 µM
TGI (A549 NSCLC): > 100 µM
TGI (MALME-3M melanoma): > 100 µM
TGI (KM12 colon): > 100 µM
TGI (HCT-116 colon): > 100 µM
TGI (DMS 273 small cell lung): > 100 µM
TGI (LXFL 529 NSCLC): > 100 µM
TGI (SF-295 CNS): > 100 µM
TGI (OVCAR-8 ovarian): > 100 µM
TGI (NCI-H460 lung): > 100 µM
TGI (OVCAR-3 ovarian): > 100 µM
TGI (OVCAR-4 ovarian): > 100 µM
TGI (K-562 leukemia): > 100 µM
TGI (HCT-15 colon): > 100 µM
TGI (DMS 114 small cell lung): > 100 µM
TGI (CAKI-1 renal): > 100 µM
TGI (SF-268 CNS): > 100 µM
TGI (SNB-75 CNS): > 100 µM
TGI (HT29 colon): > 100 µM
TGI (SK-MEL-28 melanoma): > 100 µM
TGI (DLD-1 colon): > 100 µM
TGI (TK-10 renal): > 100 µM
TGI (UACC-257 melanoma): > 100 µM
TGI (SNB-19 CNS): > 100 µM
TGI (SN12C renal): > 100 µM
TGI (HCC-2998 colon): > 100 µM
TGI (HOP-62 NSCLC): > 100 µM
